According to EP2524912A1, “Amine derivatives” (Bionomics Limited, priority 2011, dated 2012):

Biological target: human Kv1.3 (Homo sapiens, UniProt P22001)
Experiment: Kv1.3 patch-clamp electrophysiology (planar electrode, whole-cell, steady state current)
Format: cell-based
Conditions: CHO/Kv1.3 stable cell line; steady state current amplitude at end of 500 ms depolarising pulse to +40 mV; values given as ranges; read-out: IC50 (Kv1.3 ephys steady state)
Experimental: The inhibition data shown for the compounds of the list below was calculated using the steady state current amplitude at the end of the depolarising pulse in patch clamp evaluations (as described in the Pharmacology Example 2).
The human Kv1.3 construct (Kv1.3/pENTR, clone IOH61428) was purchased from Invitrogen and subcloned into pcDNA 3.2-DEST (Invitrogen). CHO-K1 cells obtained from ATCC (cat #CCL-61) were transfected with the Kv1.3/pcDNA3.2DEST construct and a stable cell line was developed through two rounds of limiting dilution under G418 selection. Positive (Kv1.3 expressing) clones were identified using electrophysiology.
CHO/Kv1.x stable cell lines were grown in a humidified atmosphere at 37 °C, 5% CO2 in T-75 flasks containing F12 Kaighn's medium supplemented with 10% fetal calf serum, 2 mM L-glutamine, 100 units/ml penicillin, 100 µg/ml streptomycin and 500 µg/ml G418 (to maintain selection). CHO/Kv1.1 and CHO/Kv1.5 cells used for patching were transferred to 33 °C for 48 hours prior to use.
Kv1.x currents were measured using a planar electrode version (Nanion Technologies GMBH) of the patch-clamp technique. Whole-cell Kv1.x current transients were evoked by 500 ms depolarising voltage pulses to +40 mV from a holding potential of -80 mV applied at 10 s intervals for Kv1.1 and Kv1.5 and at 30 s intervals for Kv1.3 to allow adequate time for recovery from inactivation. Cells were continuously bathed in a buffered saline solution containing (mM): 160 NaCl, 4.5 KCI, 2 CaCl2, 1 MgCl2, 5 glucose, 10 HEPES, pH 7.4, 290-310 mOsm.Kg^-1. The internal (pipette) solution contained (mM): 10 NaCl, 70 KF, 75 KCI, 2 MgCl2, 10 HEPES, 10 EGTA, pH 7.2, 290-310 mOsm.Kg^-1. Series resistance compensation (60-80%) was applied when the peak current amplitude exceeded 2 nA.
Compounds were initially dissolved in DMSO to 10 mM. After further dilution in DMSO, compounds were finally diluted in bath solution 1/200 (to give a final DMSO concentration of 0.5%) and applied directly to the recording chamber. Compounds were added at increasing concentrations allowing ample time for steady state block to be achieved between each concentration. Each compound was tested at 5-6 different concentrations on 2-3 cells. IC50 values can be determined by fitting the average normalised reduction of either the current integral or the steady state current amplitude at the end of the depolarising pulse obtained at each compound concentration to the Hill equation. The IC50 data reported herein is based on the steady state calculation.

Sequence of human Kv1.3 (P22001 whole entry): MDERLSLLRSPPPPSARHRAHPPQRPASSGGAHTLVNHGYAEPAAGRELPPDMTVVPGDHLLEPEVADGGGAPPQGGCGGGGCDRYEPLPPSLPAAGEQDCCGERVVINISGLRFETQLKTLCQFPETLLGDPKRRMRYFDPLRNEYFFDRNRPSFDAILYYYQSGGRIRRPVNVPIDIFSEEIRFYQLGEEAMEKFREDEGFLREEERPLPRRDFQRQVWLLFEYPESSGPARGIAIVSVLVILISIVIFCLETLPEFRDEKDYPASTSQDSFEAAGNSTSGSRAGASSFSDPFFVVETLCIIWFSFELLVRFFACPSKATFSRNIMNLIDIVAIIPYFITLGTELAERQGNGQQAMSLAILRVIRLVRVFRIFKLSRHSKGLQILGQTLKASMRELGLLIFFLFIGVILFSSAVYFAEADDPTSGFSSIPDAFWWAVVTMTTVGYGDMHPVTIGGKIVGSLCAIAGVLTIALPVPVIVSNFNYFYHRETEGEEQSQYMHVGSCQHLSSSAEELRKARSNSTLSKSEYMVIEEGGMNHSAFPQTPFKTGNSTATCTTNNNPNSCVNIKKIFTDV

Row | SMILES | IC50
1 | COc1ccc(CN(C(=O)CCc2ccc(F)cc2)C(C)c2ccccc2)cn1 (stereo not shown) [Example 43, 3-(4-fluorophenyl)-N-(1-phenylethyl)-N-(6-methoxypyridin-3-ylmethyl)propanamide] | 200 to 1000 nM
2 | COc1ccc(C(C2CC2)N(Cc2ccccn2)C(=O)CCc2ccc(F)cc2)cc1 (stereo not shown) [Example 2, N-[cyclopropyl(4-methoxyphenyl)methyl]-3-(4-fluorophenyl)-N-(pyridin-2-ylmethyl)propanamide] | 50 to 200 nM
3 | CC(CCN(C(=O)CN1CCCC(F)(F)C1)C(C)c1ccc2c(c1)CCC2)c1ccc(F)cc1 (stereo not shown) [Example 69] | 50 to 200 nM
4 | CCC(c1ccc2c(c1)CC(C)O2)N(Cc1ccccn1)C(=O)CCc1ccc(F)cc1 (stereo not shown) [Example 24, 3-(4-fluorophenyl)-N-[1-(2-methyl-2,3-dihydro-1-benzofuran-5-yl)propyl]-N-(pyridin-2-ylmethyl)propanamide] | 50 to 200 nM

Now from value to compound:

Row | IC50 | SMILES
5 | < 50 nM | O=C(C1CC1c1ccc(F)cc1)N(Cc1ccccn1)C(c1ccc(Cl)cc1)C1CC1 (stereo not shown) [Example 10, N-[(4-chlorophenyl)(cyclopropyl)methyl]-2-(4-fluorophenyl)-N-(pyridin-2-ylmethyl)cyclopropanecarboxamide]
6 | 50 to 200 nM | CC(C)C(c1ccccc1)N(Cc1ccccn1)C(=O)CCc1ccc(F)cc1 (stereo not shown) [Example 20, 3-(4-fluorophenyl)-N-(2-methyl-1-phenylpropyl)-N-(pyridin-2-ylmethyl)propanamide]
7 | < 50 nM | COc1ccc(C(C2CC2)N(Cc2ccccn2)C(=O)CC(C)c2ccc(F)cc2)cc1 (stereo not shown) [Example 1, N-[cyclopropyl(4-methoxyphenyl)methyl]-3-(4-fluorophenyl)-N-(pyridin-2-ylmethyl)butanamide]
